The values below come from PubChem BioAssay AID206 (DTP/NCI, 2004).

For this test, the system named is nude mice, HT29 intrarenal xenograft, tumor weight T/C. In words: NCI In Vivo Anticancer Drug Screen. Data for tumor model HT29;CX-1 Human Adenocarcinoma (MER+) (intrarenal inoculation) in NU/NU Swiss (nude) mice. The note with it: endpoint: mean tumor weight change, higher = larger tumour. The method in brief: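 Tumor-bearing mice received test compound or vehicle, and tumor size or survival was recorded. Values are the treated-group measurement divided by the vehicle-treated control measurement.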

Where [1] appears, read: dose: 100.0 mg/kg/injection, schedule: Q01DX010 (sc), vehicle: saline.
The mark [2] stands for this setting: dose: 100.0 mg/kg/injection, schedule: Q01DX010 (sc), vehicle: Klucel (hydroxypropylcellulose) (HPC).
The mark [3] stands for this setting: dose: 100.0 mg/kg/injection, schedule: Q04DX004 (sc), vehicle: suspension in saline.
Where [4] appears, read: dose: 800.0 mg/kg/injection, schedule: Q04DX004 (sc), vehicle: suspension in saline.
Setting [5] is: dose: 300.0 mg/kg/injection, schedule: Q04DX004 (sc), vehicle: saline with Tween-80.
The mark [6] stands for this setting: dose: 600.0 mg/kg/injection, schedule: Q04DX004 (sc), vehicle: saline with Tween-80.
The mark [7] stands for this setting: dose: 1200.0 mg/kg/injection, schedule: Q04DX004 (sc), vehicle: saline with Tween-80.

“And” between values parts separate entries of the source, which are not always exact repeats. Equal values may be shown once. Results filed as inconclusive are left out.

As to `O=C(Nc1ccc(C2=NCCN2)cc1)c1ccc(C(=O)Nc2ccc(C3=NCCN3)cc2)c(Cl)c1`, the T/C (dose: 12.5 mg/kg/injection, schedule: Q01DX010 (sc), vehicle: water) was 101 % of control; the T/C (dose: 25.0 mg/kg/injection, schedule: Q01DX010 (sc), vehicle: water) is 61 % of control; the T/C (dose: 50.0 mg/kg/injection, schedule: Q01DX010 (sc), vehicle: water) is 78 % of control.

Turning to `C[C@]12C=CC(=O)C=C1CC[C@@H]1[C@@H]2C(=O)C[C@@]2(C)[C@H]1CC[C@]2(O)C(=O)CO`, the T/C runs as follows: (dose: 150.0 mg/kg/injection, schedule: Q04DX004 (sc), vehicle: Klucel (hydroxypropylcellulose) (HPC)) 18 % of control; (dose: 600.0 mg/kg/injection, schedule: Q04DX004 (sc), vehicle: Klucel (hydroxypropylcellulose) (HPC)) 27 % of control; (dose: 1200.0 mg/kg/injection, schedule: Q04DX004 (sc), vehicle: Klucel (hydroxypropylcellulose) (HPC)) 19 % of control.

As to `OCC1OC(n2cnc3cncnc32)C(O)C1O` (stereo not given), the T/C is 65 % of control (dose: 12.5 mg/kg/injection, schedule: Q04DX004 (sc), vehicle: saline); 77 % of control (dose: 25.0 mg/kg/injection, schedule: Q04DX004 (sc), vehicle: saline); 66 % of control (dose: 50.0 mg/kg/injection, schedule: Q04DX004 (sc), vehicle: saline).

On to `NS(=O)(=O)OCCCCCCCOS(N)(=O)=O`, for which the T/C runs as follows: (dose: 37.5 mg/kg/injection, schedule: Q04DX004 (ip), vehicle: saline with Tween-80) 74 % of control; (dose: 75.0 mg/kg/injection, schedule: Q04DX004 (ip), vehicle: saline with Tween-80) 102 % of control; (dose: 150.0 mg/kg/injection, schedule: Q04DX004 (ip), vehicle: saline with Tween-80) 35 % of control.

Turning to `CCN(CC)CCNc1ccc(C)c2sc3ccccc3c(=O)c12`, under setting [1], the T/C was 87 % of control.

As to `CC(=O)OCC1OC(n2ccc(N)nc2=O)C(OC(C)=O)C1OC(C)=O` (stereo not given), the T/C (dose: 300.0 mg/kg/injection, schedule: Q04DX004 (sc), vehicle: suspension in saline) was 43 % of control; the T/C (dose: 600.0 mg/kg/injection, schedule: Q04DX004 (sc), vehicle: suspension in saline) was 50 % of control; the T/C (dose: 1200.0 mg/kg/injection, schedule: Q04DX004 (sc), vehicle: suspension in saline) is 43 % of control; the T/C (dose: 2400.0 mg/kg/injection, schedule: Q04DX004 (sc), vehicle: suspension in saline) is 24 % of control.

`N#CN=[N+]([O-])c1ccc(C(=O)O)cc1`: the T/C (dose: 45.0 mg/kg/injection, schedule: Q04DX004 (sc), vehicle: Klucel (hydroxypropylcellulose) (HPC)) was 60 % of control.

On to `CC1(C)N=C(N)N=C(N)N1c1ccc(CCCCc2ccc(S(=O)(=O)F)cc2Cl)c(Cl)c1`, for which the T/C was 84 % of control and 100 % of control (dose: 12.5 mg/kg/injection, schedule: Q01DX010 (sc), vehicle: saline); 98 % of control (dose: 50.0 mg/kg/injection, schedule: Q01DX010 (sc), vehicle: saline); 81 % of control under setting [1].

With `CN(C)/N=N/c1nc[nH]c1C(N)=O`, the T/C is, setting by setting: under setting [2], 90 % of control and 109 % of control; (dose: 400.0 mg/kg/injection, schedule: Q01DX010 (sc), vehicle: Klucel (hydroxypropylcellulose) (HPC)) 77 % of control.

With `O=C1NC(O)c2ccccc2O1` (stereo not given), the T/C was 68 % of control under setting [3]; 115 % of control (dose: 200.0 mg/kg/injection, schedule: Q04DX004 (sc), vehicle: suspension in saline); 50 % of control (dose: 400.0 mg/kg/injection, schedule: Q04DX004 (sc), vehicle: suspension in saline); 55 % of control under setting [4].

As to `CC1(C)COCN1COC1CCCCC1`, under “dose: 100.0 mg/kg/injection, schedule: Q04DX004 (sc), vehicle: saline”, the T/C is 34 % of control.

Consider `CCCCc1ccc(-n2c(C)c(COC(=O)NC)c(COC(=O)NC)c2C)cc1`, for which the T/C is, setting by setting: (dose: 50.0 mg/kg/injection, schedule: Q01DX010 (sc), vehicle: Klucel (hydroxypropylcellulose) (HPC)) 218 % of control; (dose: 50.0 mg/kg/injection, schedule: Q04DX004 (sc), vehicle: Klucel (hydroxypropylcellulose) (HPC)) 53 % of control; under setting [2], 89 % of control; (dose: 100.0 mg/kg/injection, schedule: Q04DX004 (sc), vehicle: Klucel (hydroxypropylcellulose) (HPC)) 53 % of control; (dose: 200.0 mg/kg/injection, schedule: Q04DX004 (sc), vehicle: Klucel (hydroxypropylcellulose) (HPC)) 73 % of control; (dose: 400.0 mg/kg/injection, schedule: Q04DX004 (sc), vehicle: Klucel (hydroxypropylcellulose) (HPC)) 49 % of control.

Turning to `CCOC(=O)C(C)(C)Oc1ccc(Cl)cc1`, the T/C runs as follows: under setting [5], 72 % of control; under setting [6], 70 % of control; under setting [7], 68 % of control.

For `Cc1c2cc[n+](CCN3CCCCC3)cc2c(C)c2c1[nH]c1ccc(O)cc12`, the T/C by setting is: (dose: 12.5 mg/kg/injection, schedule: Q04DX004 (sc), vehicle: suspension in saline) 100 % of control; (dose: 25.0 mg/kg/injection, schedule: Q04DX004 (sc), vehicle: suspension in saline) 108 % of control; (dose: 50.0 mg/kg/injection, schedule: Q04DX004 (sc), vehicle: suspension in saline) 98 % of control.

Regarding `[N-]=[N+]=CC(=O)CCC(N)C(=O)O` (stereo not given), the T/C was 73 % of control (dose: 0.1 mg/kg/injection, schedule: Q01DX010 (sc), vehicle: saline) and 43 % of control (dose: 0.2 mg/kg/injection, schedule: Q01DX010 (sc), vehicle: saline).

On to `Oc1ccccc1C=NCCC[N-]CCCN=Cc1ccccc1O.[Co]`, for which the T/C runs as follows: (dose: 25.0 mg/kg/injection, schedule: Q01DX010 (sc), vehicle: suspension in saline) 109 % of control; (dose: 100.0 mg/kg/injection, schedule: Q01DX010 (sc), vehicle: suspension in saline) 73 % of control and 76 % of control.

As for `COC1OC(CO)C(O)C(NC(=O)N(C)N=O)C1O` (stereo not given), the T/C (dose: 225.0 mg/kg/injection, schedule: Q04DX004 (sc), vehicle: suspension in saline) was 104 % of control; the T/C (dose: 450.0 mg/kg/injection, schedule: Q04DX004 (sc), vehicle: suspension in saline) was 95 % of control; the T/C (dose: 900.0 mg/kg/injection, schedule: Q04DX004 (sc), vehicle: suspension in saline) is 33 % of control.

`CCOC(=O)C1=C(C#N)C2(CCC(OCc3ccccc3)CC2)C(=O)O1` (stereo not given): the T/C by setting is: under setting [3], 91 % of control; under setting [4], 110 % of control.

For `Cc1c2cc[n+](C)cc2c(C)c2c1[nH]c1ccc(O)cc12`, the T/C was 360 % of control (dose: 1.25 mg/kg/injection, schedule: Q04DX004 (sc), vehicle: water) and 120 % of control (dose: 2.5 mg/kg/injection, schedule: Q04DX004 (sc), vehicle: water).

As for `CC[N+](CC)(CC)CC`, the T/C was 68 % of control (dose: 3.0 mg/kg/injection, schedule: Q01DX010 (sc), vehicle: saline with Tween-80) and 104 % of control (dose: 6.0 mg/kg/injection, schedule: Q01DX010 (sc), vehicle: saline with Tween-80).

As for `CN1c2c(nc(N)[nH]c2=O)NCC1CCNc1ccc(C(=O)NC(CCC(=O)O)C(=O)O)cc1` (stereo not given), the T/C was 33 % of control (dose: 400.0 mg/kg/injection, schedule: Q01DX010 (sc), vehicle: saline) and 51 % of control (dose: 800.0 mg/kg/injection, schedule: Q01DX010 (sc), vehicle: saline).

In the case of `C=C/C(C)=C/[C@H](C)C(=O)C[C@H](O)CC1CC(=O)NC(=O)C1`, the T/C is 91 % of control (dose: 150.0 mg/kg/injection, schedule: Q04DX004 (sc), vehicle: saline with Tween-80); 100 % of control under setting [5]; 67 % of control under setting [6]; 63 % of control under setting [7].

With `COc1ccc(C(=O)c2no[n+]([O-])c2C(=O)c2ccc(OC)cc2)cc1`, the T/C runs as follows: (dose: 200.0 mg/kg/injection, schedule: Q04DX004 (sc), vehicle: saline with Tween-80) 182 % of control; (dose: 400.0 mg/kg/injection, schedule: Q04DX004 (sc), vehicle: saline with Tween-80) 117 % of control; (dose: 800.0 mg/kg/injection, schedule: Q04DX004 (sc), vehicle: saline with Tween-80) 71 % of control; (dose: 1600.0 mg/kg/injection, schedule: Q04DX004 (sc), vehicle: saline with Tween-80) 83 % of control.

For `O=C1N(Cl)C(=O)C(c2ccc(Cl)cc2)(c2ccc(Cl)cc2)N1Cl`, the T/C is, setting by setting: (dose: 100.0 mg/kg/injection, schedule: Q01DX010 (sc), vehicle: saline with Tween-80) 105 % of control; (dose: 200.0 mg/kg/injection, schedule: Q01DX010 (sc), vehicle: saline with Tween-80) 83 % of control.
